Key:
human α2β3γ2 GABAARs = assay: In vitro electrophysiological recording assay (automated patch-clamp), α2-GABAAR relative efficacy; assay type: cell-based; settings: % efficacy normalised to diazepam; GABA EC10-20; concentration generally >= 100 times Ki
Method in brief: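 Relative efficacy is % enhancement of the leak-subtracted GABA EC10-20 peak current, divided by the separately measured diazepam value; compound generally tested at ≥100× Ki after ≥1 min pre-application. Recordings at room temperature, human receptors stably expressed in L(tk^−) (QPatch, −65 mV) or HEK293 (SyncroPatch, −80 mV) cells.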

[1] = target: human α3β3γ2 GABAARs (benzodiazepine site) (Homo sapiens (Human), UniProt P18507+P34903); assay: In vitro radioligand binding assay ([3H]Ro15-1788 displacement), α3-GABAAR Ki; settings: L(tk-) cell membranes, 4 nM [3H]Ro15-1788
Method in brief: (§1)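 Ki derived via Cheng-Prusoff from IC50 for displacement of 4 nM [3H]Ro15-1788 (Kd from saturation binding), with 1-3 μM TP003 defining nonspecific binding. Incubation lasted 1 h at 4° C on membranes of induced L(tk−) cells stably transfected with the human subunits; detection by filtration and scintillation counting.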

human α3β3γ2 GABAARs = assay: In vitro electrophysiological recording assay (automated patch-clamp), α3-GABAAR relative efficacy; assay type: cell-based; settings: % efficacy normalised to diazepam; GABA EC10-20; concentration generally >= 100 times Ki
Protocol: The efficacy of modulators was evaluated using the automated patch-clamp platforms QPatch16 (Sophion, Copenhagen, Denmark) or SyncroPatch 384PE (Nanion, Germany).
For QPatch electrophysiology testing L(tk^−) cells stably expressing human α1β3γ2, α2β3γ2, α3β3γ2, α5β3γ2 GABAARs were used. HEK293 cells stably expressing human α1β3γ2L, α2β3γ2L, α3β3γ2L and α5β3γ2L GABAARs were used for the SyncroPatch 384PE experiments.
All experiments were carried out at room temperature (20-22° C.) using a standard whole cell procedure and physiological solutions. Gigaseals were formed upon execution of a combined suction/voltage protocol with subsequent increased suction leading to the whole-cell configuration.
The currents recorded were acquired at either 1 KHz or 2 KHz and filtered using a Bessel filter. Whole-cell currents were measured at a holding potential of-65 mV (QPatch) or −80 mV (SyncroPatch).
For QPatch experiments, the extracellular solution contained of: 145 mM NaCl, 4 mM KCl, 1 mM MgCl2, 2 mM CaCl2), 10 mM HEPES, 10 mM D-glucose (pH 7.4), and the intracellular solution consisted of: 96 mM KCl, 28 mM CsCl, 25 mM KOH, 4.3 mM CaCl2), 1.4 mM MgCl2, 10 mM EGTA, 10 mM HEPES, 3 mM MgATP (pH 7.2). The osmolarities of the extracellular and intracellular solutions were 305 and 295 mOsm respectively.
For SyncroPatch experiments, the extracellular recording solution contained: 140 mM NaCl, 4 mM KCl, 2 mM CaCl2), 1 mM MgCl2, 10 mM HEPES, 5 mM glucose (pH 7.4 with NaOH and osmolarity of c. 300-310 mOsm). The intracellular recording solution consisted of: 90 mM KCl, 50 mM KF, 1.5 mM MgCl2, 11.1 mM EGTA and 10 mM HEPES (pH 7.2 with KOH and osmolarity of c. 300 mOsm). 2 mM of NaATP was added to the intracellular solution on the day of testing.
The effects of modulators were evaluated in the presence of a submaximal GABA concentration, giving typically less than 30% activation of the response elicited by a saturating GABA concentration. To check and ensure baseline current stability before compound addition, two to five consecutive applications of GABA EC10-20 separated by wash steps were performed before compound addition. The test compound was applied 1 min at least prior to co-application with GABA EC10-20. Following a further wash step, a saturating concentration of GABA was applied at the end of each recording, allowing the accurate evaluation for each cell of the percentage baseline activation elicited by the submaximal GABA applied.
The compounds were first dissolved in DMSO as a 10 mM stock and then further diluted to the testing concentrations so that the final DMSO concentration in the extracellular recording solution was 0.1% (QPatch) or 0.2% (SyncroPatch).
The % efficacy of modulators was determined from the GABA elicited currents recorded in the presence and absence of the test compound, using the formula:
[((compound peak current−leak)−(GABA peak current-leak))/(GABA peak current−leak)]*100,
where ‘leak’ is the leak baseline current at the holding potential, ‘compound peak current’ is the current elicited by co-application of compound and GABA, and ‘GABA peak current’ is the current elicited by GABA alone at the last GABA application before compound addition. The results were presented as ‘relative efficacy’ for each compound generally at a concentration equal or higher than 100 times their determined Ki. The relative efficacy of a compound was calculated by normalising its % efficacy to the corresponding % efficacy of diazepam that was separately determined.

[2] = target: human α2β3γ2 GABAARs (benzodiazepine site) (Homo sapiens (Human), UniProt P18507+P47869); assay: In vitro radioligand binding assay ([3H]Ro15-1788 displacement), α2-GABAAR Ki
Sequence of human α2β3γ2 GABAARs (benzodiazepine site) (P47869 29-451): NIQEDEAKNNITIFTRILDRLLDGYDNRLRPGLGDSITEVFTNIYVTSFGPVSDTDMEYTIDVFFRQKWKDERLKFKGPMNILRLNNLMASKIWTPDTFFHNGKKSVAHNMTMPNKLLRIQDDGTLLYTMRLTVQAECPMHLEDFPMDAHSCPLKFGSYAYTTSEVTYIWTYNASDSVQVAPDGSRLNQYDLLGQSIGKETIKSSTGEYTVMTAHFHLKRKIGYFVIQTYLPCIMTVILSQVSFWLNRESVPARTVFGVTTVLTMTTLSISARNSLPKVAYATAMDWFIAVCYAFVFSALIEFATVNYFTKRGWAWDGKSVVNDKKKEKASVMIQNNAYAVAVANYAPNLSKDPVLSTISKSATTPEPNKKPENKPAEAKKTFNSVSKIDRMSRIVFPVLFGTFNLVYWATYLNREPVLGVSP
Sequence of human α2β3γ2 GABAARs (benzodiazepine site) (P28472 26-473 partner): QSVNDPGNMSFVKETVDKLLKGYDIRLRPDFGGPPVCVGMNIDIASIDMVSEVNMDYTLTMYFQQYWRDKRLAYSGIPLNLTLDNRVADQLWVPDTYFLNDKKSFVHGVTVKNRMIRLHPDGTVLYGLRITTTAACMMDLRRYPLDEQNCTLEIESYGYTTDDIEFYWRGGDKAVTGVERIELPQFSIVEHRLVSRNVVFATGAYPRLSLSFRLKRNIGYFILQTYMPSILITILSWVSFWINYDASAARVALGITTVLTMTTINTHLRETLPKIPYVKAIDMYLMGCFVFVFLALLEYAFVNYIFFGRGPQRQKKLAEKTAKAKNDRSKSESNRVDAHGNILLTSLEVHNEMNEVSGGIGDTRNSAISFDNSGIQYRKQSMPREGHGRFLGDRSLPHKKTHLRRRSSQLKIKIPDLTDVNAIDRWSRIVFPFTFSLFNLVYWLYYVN
Sequence of human α2β3γ2 GABAARs (benzodiazepine site) (P18507 40-475): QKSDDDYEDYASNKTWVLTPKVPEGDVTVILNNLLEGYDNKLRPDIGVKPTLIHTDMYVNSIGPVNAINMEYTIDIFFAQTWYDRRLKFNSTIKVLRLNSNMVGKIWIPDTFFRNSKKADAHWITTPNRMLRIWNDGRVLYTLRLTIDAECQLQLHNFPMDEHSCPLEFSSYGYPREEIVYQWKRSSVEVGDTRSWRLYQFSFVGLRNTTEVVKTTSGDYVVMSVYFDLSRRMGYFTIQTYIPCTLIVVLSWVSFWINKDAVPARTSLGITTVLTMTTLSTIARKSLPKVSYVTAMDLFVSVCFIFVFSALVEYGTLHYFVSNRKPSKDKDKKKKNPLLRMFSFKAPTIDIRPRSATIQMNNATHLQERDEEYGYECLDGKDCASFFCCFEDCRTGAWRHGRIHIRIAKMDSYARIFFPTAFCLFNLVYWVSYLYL
Method in brief: as §1

## CCCNC(=O)c1c(N)c2cccc(-c3cc(OC)ncc3F)c2[nH]c1=O [Example 34, 4-Amino-8-(5-fluoro-2-methoxy-4-pyridyl)-2-oxo-N-propyl-1H-quinoline-3-carboxamide]
Human α2β3γ2 GABAARs
  α2-GABAAR Relative Efficacy (vs. Diazepam): 0.49
[1]
  Ki: 1.58 nM
Human α3β3γ2 GABAARs
  α3-GABAAR Relative Efficacy (vs. Diazepam): 0.47
[2]
  Ki: 0.68 nM
